Data set [1] has as its target T1, cytochrome P450 2C8-isoenzyme (Homo sapiens, UniProt P10632).
T1 construct: is assayed at 37° C. with human liver microsomes; from tissue; host or cells: human liver microsomes
T1 sequence (P10632 1-490): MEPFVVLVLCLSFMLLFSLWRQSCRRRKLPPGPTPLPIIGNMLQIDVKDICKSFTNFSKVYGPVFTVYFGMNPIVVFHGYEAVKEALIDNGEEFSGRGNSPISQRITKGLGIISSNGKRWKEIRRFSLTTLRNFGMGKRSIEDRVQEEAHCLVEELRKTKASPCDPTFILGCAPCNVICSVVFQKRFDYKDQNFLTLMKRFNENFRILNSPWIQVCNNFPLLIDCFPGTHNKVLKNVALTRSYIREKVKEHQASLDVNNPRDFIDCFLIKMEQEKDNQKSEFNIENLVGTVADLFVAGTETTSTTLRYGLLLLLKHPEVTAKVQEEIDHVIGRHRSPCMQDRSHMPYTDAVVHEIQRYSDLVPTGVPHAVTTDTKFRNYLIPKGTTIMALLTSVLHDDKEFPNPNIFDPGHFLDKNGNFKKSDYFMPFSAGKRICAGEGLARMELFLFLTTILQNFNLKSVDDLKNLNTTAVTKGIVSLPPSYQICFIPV
The data set is described as follows: Inhibition of CYP-2C8 (amodiaquine deethylation, human liver microsomes). It is filed as in vitro ADME. The settings on record: human liver microsomes 0.05 mg/mL, amodiaquine 1 μM, 37° C. Here is the method:
All assays are carried out on a robotic system in 96 well plates. The final incubation volume contains TRIS buffer (0.1 M), MgCl2 (5 mM), human liver microsomes (0.05 mg/mL), amodiaquine (1 μM) and the test compound at five different concentrations or no compound (high control) in duplicate (e.g. highest concentration 10-50 μM with subsequent serial 1:4 dilutions). Following a short preincubation period, reactions are started with the cofactor (NADPH, 1 mM) and stopped by cooling the incubation down to 8° C. and subsequently by addition of one volume of acetonitrile. An internal standard solution—the stable isotope d5-desethylamodiaquine—is added after quenching of incubations. Peak area analyte (=metabolite formed) and internal standard is determined by LC-MS/MS. The resulting peak area ratio analyte to internal standard in these incubations is compared to a control activity containing no test compound. Within each of the assay runs, the IC50 of a positive control inhibitor (Montelukast) is determined. Experimental IC50 values are calculated by least square regression according to the following equation: % control activity=(100% control activity/(1+(I/IC50)S))−B with I=inhibitor concentration; S=slope factor; B=background activity (lower plateau of the inhibition curve) If the inhibition of the reaction is already >50% at the lowest concentration of the test compound, the IC50 is assigned “<lowest concentration tested” (usually <0.4 μM). If the inhibition of the reaction is still <50% at the highest concentration of the test compound, the IC50 is assigned “>highest concentration tested” (usually >50 μM).

A short description of data set [2]: Chemical stability (degradation kinetics) in acidic aqueous media, HPLC. The settings on record: acetonitrile/0.1 M aqueous HCl (2:3), pH ca. 1.2, 37° C. The data set is classed as physicochemical. Here is the method:
Degradation kinetics is used to simulate chemical stability of compounds in the acidic part of the gastro intestinal tract. […] Their application as medical drugs to treat human diseases is therefore less restricted and troublesome. The chemical stability of the compounds of the invention at pH value of ca. 1.2 is determined as follows: Compound is dissolved in an HPLC vial either in a mixture of acetonitrile/0.1 M aqueous HCl (2:3; pH ca. 1.2) or in a mixture of acetonitrile/McIlvaine buffer pH 7.4 (2:3) to get a concentration of approximately 0.25 mg/ml. The vial was then transferred into an HPLC autosampler system and maintained at a temperature of 37° C. A first sample is taken and injected immediately into a standard HPLC system with a UV DAD detector. Further samples are injected after 2, 4, 6, 8 and 10 hours. Degradation of the compound is measured by determining the recovery rate of compound [%] for each injection using an HPLC standard gradient method. Therefore the peak area of the main peak for the first injection (AUt0) is determined and set as 100%. Peak area of the main peak is determined also for the further injections (AUtn, n=2, 4, 6, 8, 10) and expressed as fraction of […][%].

A short description of data set [3]: Aqueous solubility from DMSO stock, LC-UV. The data set is classed as physicochemical. The settings on record: aqueous buffer, kinetic from dmso stock; buffer pH 2.2, 24 h shaking, 2.5% DMSO. As for the experimental part:
The aqueous solubility of the compounds of the invention is determined by comparing the amount dissolved in buffer to the amount in an acetonitrile/water (1/1) solution. Starting from a 10 mM DMSO stock solution aliquots are diluted with acetonitrile/water (1/1) or buffer, respectively. After 24 h of shaking, the solutions are filtrated and analyzed by LC-UV. The amount dissolved in buffer is compared to the amount in the acetonitrile solution. Solubility is usually being measured from 0.001 to 0.125 mg/mL at a DMSO concentration of 2.5%. If more than 90% of the compound is dissolved in buffer, the value is marked with “>”.

For data set [4], the target named is T2, cytochrome P450 2C9-isoenzyme (Homo sapiens, UniProt P11712).
T2 construct: is assayed at 37° C. with human liver microsomes; from tissue; host or cells: human liver microsomes
T2 sequence (P11712 whole entry): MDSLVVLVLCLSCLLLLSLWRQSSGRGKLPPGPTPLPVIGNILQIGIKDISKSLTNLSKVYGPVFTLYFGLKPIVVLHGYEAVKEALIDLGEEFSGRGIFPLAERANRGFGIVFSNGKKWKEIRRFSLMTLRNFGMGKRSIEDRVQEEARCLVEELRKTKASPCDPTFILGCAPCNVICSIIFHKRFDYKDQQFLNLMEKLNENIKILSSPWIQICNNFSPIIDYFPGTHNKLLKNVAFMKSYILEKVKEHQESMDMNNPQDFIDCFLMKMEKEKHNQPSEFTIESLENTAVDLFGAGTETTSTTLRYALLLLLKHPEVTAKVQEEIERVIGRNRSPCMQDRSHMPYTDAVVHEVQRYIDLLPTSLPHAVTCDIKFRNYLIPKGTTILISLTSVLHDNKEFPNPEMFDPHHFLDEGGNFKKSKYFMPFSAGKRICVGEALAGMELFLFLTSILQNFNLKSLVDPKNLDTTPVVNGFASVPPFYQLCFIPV
The data set is described as follows: Inhibition of CYP-2C9 (diclofenac hydroxylation, human liver microsomes). It is filed as in vitro ADME. The settings on record: human liver microsomes 0.1 mg/mL, diclofenac 10 μM, 37° C. Here is the method: All assays are carried out on a robotic system in 96 well plates. The final incubation volume contains TRIS buffer (0.1 M), MgCl2 (5 mM), human liver microsomes (0.1 mg/mL), diclofenac (10 μM) and the test compound at five different concentrations or no compound (high control) in duplicate (e.g. highest concentration 10-50 μM with subsequent serial 1:4 dilutions). Following a short preincubation period, reactions are started with the cofactor (NADPH, 1 mM) and stopped by cooling the incubation down to 8° C. and subsequently by addition of one volume of acetonitrile. An internal standard solution—the stable isotope 13C6-hydroxydiclofenac—is added after quenching of incubations. Peak area analyte (=metabolite formed) and internal standard is determined by LC-MS/MS. The resulting peak area ratio analyte to internal standard in these incubations is compared to a control activity containing no test compound. Within each of the assay runs, the IC50 of a positive control inhibitor (sulfaphenazole) is determined. Experimental IC50 values are calculated by least square regression according to the following equation: % control activity=(100% control activity/(1+(I/IC50)S)))−B with I=inhibitor concentration S=slope factor B=background activity (lower plateau of the inhibition curve) If the inhibition of the reaction is already >50% at the lowest concentration of the test compound, the IC50 is assigned “<lowest concentration tested” (usually <0.4 μM). If the inhibition of the reaction is still <50% at the highest concentration of the test compound, the IC50 is assigned “>highest concentration tested” (usually >50 μM).

The next data set addresses human GPR40 receptor (Homo sapiens, UniProt O14842). The data set is described as follows: IP1 accumulation measurements using the IPOne assay system. It is filed as cell-based. The settings on record: 1321N1 cells stably expressing human GPR40; 1 h stimulation at 37° C. Here is the method:
IP1 accumulation measurements using the IPOne assay system—1321N1 cells stably expressing human GPR40 receptor (Euroscreen, Belgium) are seeded 24 h before the assay in white 384-well plates in culture medium containing 10% FCS, 1% Na-Pyruvate and 400 μg/mL G418. IP1 is assayed according to the manufacturer's description (Cisbio Bioassays, France). In brief, the assay is started by substitution of the culture medium by stimulation buffer (Hepes 10 mM, CaCl2 1 mM, MgCl2 0.5 mM, KCl 4.2 mM, NaCl 146 mM, glucose 5.5 mM and LiCl 50 mM, pH 7.4). Cells are stimulated for 1 h at 37° C., 5% CO2 by addition of the compounds that are diluted in stimulation buffer containing LiCl. Assays are stopped by adding HTRF-conjugates (IP1-d2 and Anti-IP1 cryptate Tb) and lysis buffer, provided by the manufacturer. After an incubation time of 1 h at room temperature plates are measured using an EnVision™, Perkin Elmer. The obtained fluorescence ratios at 665/615 […] are then used to calculate the pEC50 values using Assay Explorer 3.3 Software (Accelrys, Inc.) by interpolation using an IP1 reference curve and subsequent sigmoidal curve fitting allowing for a variable hill slope.

≈ marks a conversion by molar mass, not a printed value.

Chain of human GPR40 receptor (O14842 whole entry): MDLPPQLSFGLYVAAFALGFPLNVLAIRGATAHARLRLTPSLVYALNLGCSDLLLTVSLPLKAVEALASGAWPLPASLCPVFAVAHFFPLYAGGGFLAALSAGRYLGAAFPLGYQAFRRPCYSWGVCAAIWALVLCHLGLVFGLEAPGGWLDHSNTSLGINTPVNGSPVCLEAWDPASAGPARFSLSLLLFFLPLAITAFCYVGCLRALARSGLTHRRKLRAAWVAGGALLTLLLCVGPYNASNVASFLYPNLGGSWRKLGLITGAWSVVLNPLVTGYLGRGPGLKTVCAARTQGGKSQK

On to `Cc1cc(OCCCS(C)(=O)=O)cc(C)c1-c1cccc2c1CC[C@H]2Oc1ccc2c(c1)OC[C@H]2CC(=O)O` [2 (WO 2013/144098), reference compound], for which the IC50 in data set [1] worked out at 19 µM. Besides, the “Amount of degradation after 2 h” value in data set [2] worked out at 94%.

Regarding `Cc1cc(OCCC(C)(C)O)cc(C)c1-c1ccc(F)c2c1CC[C@H]2Oc1ccc2c(c1)OC[C@H]2CC(=O)O` [4 (WO 2013/144097), reference compound], the solubility at 24 h in data set [3] was under 1 µg/mL. In addition, the IC50 in data set [1] is 6 µM; in data set [4] it was 21 µM. Further, the “Amount of degradation after 2 h” value in data set [2] was 13%.

In data set [3], `Cc1cc(-c2nnn(C)n2)cc(C)c1-c1ccc(F)c2c1CC[C@H]2Oc1ccc2c(c1)OC[C@H]2CC(=O)O` [95 (WO 2013/144097), reference compound] had a solubility at 24 h of under 1 µg/mL. Moreover, the 50% inhibitory concentration (IC50) in data set [1] was found to be 9 µM; in data set [4] it was 19 µM. Also, the “Amount of degradation after 2 h” value in data set [2] is 4%.

In data set [3], `Cc1cc(OCCC(C)(C)O)cc(C)c1-c1ccc(F)c2c1CC[C@H]2Nc1cnc2c(c1)OC[C@H]2CC(=O)O` [Example 2, 2-[(3S)-6-{[(1R)-7-Fluoro-4-[4-(3-hydroxy-3-methylbutoxy)-2,6-dimethylphenyl]-2,3-dihydro-1H-inden-1-yl]amino}-2H,3H-furo[3,2-b]pyridin-3-yl]acetic acid] gave a solubility at 24 h of 60 µg/mL (≈ 112 µM). Also, the values for the IC50 in data set [1] and in data set [4] were 32 µM and over 50 µM, respectively. Also, in data set [2], the “Amount of degradation after 2 h” value is given as 0.2%. Also, at human GPR40 receptor, the concentration giving a half-maximal response (EC50) was 0.061 µM.

Consider `Cc1cc(-c2nnn(C)n2)cc(C)c1-c1cccc2c1CC[C@H]2Nc1cnc2c(c1)OC[C@H]2CC(=O)O` [Example 3, 2-[(3S)-6-{[(1R)-4-[2,6-Dimethyl-4-(2-methyl-2H-1,2,3,4-tetrazol-5-yl)phenyl]-2,3-dihydro-1H-inden-1-yl]amino}-2H,3H-furo[3,2-b]pyridin-3-yl]acetic acid], for which the concentration in solution in data set [3] (solubility at 24 h) was 6 µg/mL (≈ 12.1 µM). Also, the IC50 is 29 µM in data set [1] and over 50 µM in data set [4]. For the same compound, the “Amount of degradation after 2 h” value in data set [2] is listed as under 0.5%. At human GPR40 receptor, this compound returned an EC50 of 0.042 µM.

As to `Cc1ccc(Cl)c(-c2cccc3c2CC[C@H]3Nc2cnc3c(c2)OCC3CC(=O)O)c1Cl` (stereo partly drawn) [Example 128, 2-(6-{[(1R)-4-(2,6-dichloro-3-methylphenyl)-2,3-dihydro-1H-inden-1-yl]amino}-2H,3H-furo[3,2-b]pyridin-3-yl)acetic acid], in data set [3], the concentration in solution (solubility at 24 h) was 1 µg/mL (≈ 2.13 µM). In addition, the 50% inhibitory concentration (IC50) in data set [1] was 14 µM; in data set [4] it was over 50 µM. The compound further registered an EC50 at human GPR40 receptor of 0.126 µM.

Turning to `N#Cc1cccc(C#N)c1-c1cccc2c1CC[C@H]2Nc1cnc2c(c1)OCC2CC(=O)O` (stereo partly drawn) [Example 130, 2-(6-{[(1R)-4-(2,6-Dicyanophenyl)-2,3-dihydro-1H-inden-1-yl]amino}-2H,3H-furo[3,2-b]pyridin-3-yl)acetic acid], the solubility at 24 h in data set [3] was found to be 84 µg/mL (≈ 192 µM). Further, the half-maximal inhibitory concentration (IC50) in data set [1] and in data set [4] was over 50 µM in each case. Further, the EC50 on human GPR40 receptor was over 10 µM.

`N#CC1(c2ccccc2-c2cccc3c2CC[C@H]3Nc2cnc3c(c2)OCC3CC(=O)O)CC1` (stereo partly drawn) [Example 131, 2-(6-{[(1R)-4-[2-(1-Cyanocyclopropyl)phenyl]-2,3-dihydro-1H-inden-1-yl]amino}-2H,3H-furo[3,2-b]pyridin-3-yl)acetic acid] gave a solubility at 24 h in data set [3] of 67 µg/mL (≈ 148 µM). The values for the IC50 in data set [1] and in data set [4] were 37 µM and over 50 µM, respectively. The same compound gave a concentration for a half-maximal effect (EC50) at human GPR40 receptor of 6.39 µM.

For the compound `Cc1nc(-c2cc(C)c(-c3cccc4c3CC[C@H]4Nc3cnc4c(c3)OCC4CC(=O)O)c(C)c2)no1` (stereo partly drawn) [Example 132, 2-(6-{[(1R)-4-[2,6-Dimethyl-4-(5-methyl-1,2,4-oxadiazol-3-yl)phenyl]-2,3-dihydro-1H-inden-1-yl]amino}-2H,3H-furo[3,2-b]pyridin-3-yl)acetic acid], in data set [3], the concentration in solution (solubility at 24 h) came to 3 µg/mL (≈ 6.04 µM). The results for the half-inhibitory concentration (IC50) in data set [1] and in data set [4] were 23 µM and over 50 µM, respectively. The compound further came in with an EC50 on human GPR40 receptor of 0.036 µM.

Consider `Cc1cc(-c2cc(=O)n(C)cn2)cc(C)c1-c1cccc2c1CC[C@H]2Nc1cnc2c(c1)OCC2CC(=O)O` (stereo partly drawn) [Example 133, 2-(6-{[(1R)-4-[2,6-Dimethyl-4-(1-methyl-6-oxo-1,6-dihydropyrimidin-4-yl)phenyl]-2,3-dihydro-1H-inden-1-yl]amino}-2H,3H-furo[3,2-b]pyridin-3-yl)acetic acid], for which the concentration in solution in data set [3] (solubility at 24 h) was 78 µg/mL (≈ 149 µM). The figures for the half-maximal inhibitory concentration (IC50) in data set [1] and in data set [4] were 21 µM and over 50 µM, respectively. The compound also had a concentration for a half-maximal effect (EC50) on human GPR40 receptor of 0.033 µM.

For the origin of these results see patent US20180354962A1, “[{[2,3-Dihydro-1H-inden-1-yl]amino}-2H,3H-furo[3,2-b]pyridin-3-yl]acetic acids, pharmaceutical compositions and uses thereof” (Boehringer Ingelheim International GmbH, priority 2015, published 2018).
